Where two headings read alike, the source gives them in different places.
How the values were obtained:
ITK = target: T1, ITK (Homo sapiens, UniProt Q08881); assay: ITK Degradation HiBiT Assay; assay type: cell-based
T1 construct: Compounds provided herein were assayed in vitro with ITK HiBit cell lines; endogenous in cells; host or cells: Molt4 (ATCC CRL-1552 [sic]), monoclonal clone 1C10
T1 sequence (Q08881 1-620): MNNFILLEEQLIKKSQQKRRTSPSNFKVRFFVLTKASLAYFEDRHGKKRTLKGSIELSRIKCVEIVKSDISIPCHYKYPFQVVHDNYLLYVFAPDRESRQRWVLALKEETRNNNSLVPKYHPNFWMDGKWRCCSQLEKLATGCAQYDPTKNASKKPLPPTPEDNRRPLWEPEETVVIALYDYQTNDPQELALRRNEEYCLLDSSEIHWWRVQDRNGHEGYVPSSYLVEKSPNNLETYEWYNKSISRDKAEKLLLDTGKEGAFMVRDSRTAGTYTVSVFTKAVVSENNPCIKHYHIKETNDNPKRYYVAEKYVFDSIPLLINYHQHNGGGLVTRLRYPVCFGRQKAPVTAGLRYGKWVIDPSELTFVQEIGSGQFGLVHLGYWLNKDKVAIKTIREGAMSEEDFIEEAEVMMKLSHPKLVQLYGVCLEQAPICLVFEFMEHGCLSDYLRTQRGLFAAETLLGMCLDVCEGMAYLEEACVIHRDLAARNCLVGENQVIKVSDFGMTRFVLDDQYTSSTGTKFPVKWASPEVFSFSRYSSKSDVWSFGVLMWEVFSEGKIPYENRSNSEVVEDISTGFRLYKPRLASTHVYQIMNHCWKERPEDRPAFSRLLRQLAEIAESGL
Description: Compounds provided herein were assayed in vitro with ITK HiBit cell lines. Compound dilution series (11-point, 5 fold dilutions in DMSO, columns 2-12 with replicate in rows A/B, C/D, E/F, G, H at 2000× the final required concentrations were prepared in 96 well plate (Falcon, cat. no. 353077). Column 1, rows A-H were control DMSO. The 2000× solutions ranged from 2 mM to 1.024 nM (final assay concentration range 1 μM to […]). The 2000× solutions were added to cells in […], for a final DMSO concentration of 0.5% and final assay compound concentration of 1×. For the cells, C-terminal HiBiT-tagged Molt4 cells (ATCC CRL-1552, monoclonal cell line clone 1C10) were plated at 1×10^6 cells/mL, 100 μL/well ([…]) in complete RPMI (10% FBS, 1% L-glutamine). The cells were incubated with compound 32 and compound 30 for 4 hrs at 32° C./6% CO2.
Following incubation, 100 μL of complete Nano-Glo HiBiT Lytic Detection Reagent (Nano-Glo HiBiT Lytic Buffer with 1:50 Nano-Glo HiBiT Lytic Substrate and 1:100 LgBiT Protein; Promega cat. no. N3O40) was added. Cells were further incubated for 10 min at room temperature (RT). Luminescence units (LU) were read on an EnVision plate reader (Perkin Elmer, 0.1 sec per well). Percent ITK remaining per sample was calculated as follows: […]
Using Graphpad Prism, % ITK remaining values were plotted as a function of compound concentration. To determine DC50 and Dmax values, resulting curves were fit to the Prism curve-fitting equation “log(inhibitor) vs response−Variable slope (four parameters)” (reported best fit value IC50 used as DC50). ITK was measured with antibody-based MSD (Meso-Scale Discovery) assays shown below.

[1] = Mouse PK Analysis (plasma LC/MS/MS, noncompartmental PK parameters); assay type: in vivo; design: AUC(0-t): concentration or dose not given beside the values; conditions: mouse; mice, oral administration, plasma
Description: Compounds 30 and 29 were administered to mice orally. After 6 hours or 24 hours, splenocytes cells were harvested. ITK was evaluated by Western blotting. Plasma concentrations were determined by LC/MS/MS. Plasma samples were protein precipitated by addition of 100 μl of acetonitrile containing 50 ng/ml of internal standard. The resulting mixture was vortexed and centrifuged at 4000 RPM for 5 minutes. An aliquot of the resultant supernatant (75 μl) was added to 75 μl of 0.1% formic acid in water to constitute the final sample for injection. Samples were injected on a Shimadzu Exion LC Binary Gradient AD Pump HLPC system connected to a Sciex QTRAP 6500+ mass spectrometer. Five μl of sample was injected onto a Waters Acquity UPLC BEH C18 column 130A (2.1×30 mm, […]) at 40° C. utilizing a flow rate of 700 μl/minute. Mobile Phase A was 0.1% formic acid in water and mobile phase B was 0.1% formic acid in acetonitrile. A linear gradient of 15-95% B over 1.0 minute was used. The mass spectrometer was operated in positive ion electrospray mode with multiple reaction monitoring for maximum sensitivity. Sciex Analyst software (version 1.6.3) was used for LC/MS/MS instrument control and acquisition. Compound concentration was determined against a standard curve of internal standard versus compound peak area ratio. Noncompartmental PK parameters were determined using Phoenix 32 software (version 8.2.0.4383) from Certara. Plasma concentrations from the LC/MS/MS analyses, dose, route of administration, and desired units were utilized for PK parameter calculations. […] FIG. 3C provides the concentration over time of compound 30 following in vivo oral administration in the 6 hour and 24 hour assays.
Cmax, Tmax and AUClast were all calculated using a WinNonLin Phoenix 64 v 8.2.0.4383. Using non-compartmental analysis, Tmax, Cmax and AUClast were determined as follows:
Tmax—Time of maximum observed concentration. Cmax—Maximum observed concentration, occurring at time Tmax, as defined above. AUClast—Area under the curve from the time of dosing to the time of the last measurable (positive) concentration (Tlast).

[2] = MOLT-4, C-terminal HiBiT-tagged Molt4 cells, 4 hrs incubation, read-out: HiBiT DMax (%)
[3] = C-terminal HiBiT-tagged Molt4 cells, 4 hrs incubation

SMILES	Dmax (ITK; [2])	AUC(0-t) [1]	Cmax [1]	Tmax [1]	DC50 (ITK; [3])	Dmax (ITK; ITK degradation in HiBiT cell line, FIG. 1, read-out: Dmax values (FIG. 1))
CN(C(=O)CCC1CCN(c2ccc(C3CCC(=O)NC3=O)cn2)CC1)c1ccc2cc(-c3n[nH]c4c3C[C@@H]3C(F)(F)[C@]3(C)C4)[nH]c2c1 (stereo partly drawn) [Compound 4, N-(2-((4aS,5aR)-5,5-difluoro-5a-methyl-1,4,4a,5,5a,6-hexahydrocyclopropa[f]indazol-3-yl)-1H-indol-6-yl)-3-(1-(5-(2,6-dioxopiperidin-3-yl)pyridin-2-yl)piperidin-4-yl)-N-methylpropanamide]	82%	7.07 µM·h	2430 nM	1 h		
CN(C(=O)CC1CCN(CC2CCN(c3ccc(C4CCC(=O)NC4=O)cn3)CC2)CC1)c1ccc2cc(-c3n[nH]c4c3C[C@@H]3C(F)(F)[C@]3(C)C4)[nH]c2c1 (stereo partly drawn) [Compound 6, N-(2-((4aS,5aR)-5,5-difluoro-5a-methyl-1,4,4a,5,5a,6-hexahydrocyclopropa[f]indazol-3-yl)-1H-indol-6-yl)-2-(1-((1-(5-(2,6-dioxopiperidin-3-yl)pyridin-2-yl)piperidin-4-yl)methyl)piperidin-4-yl)-N-methylacetamide]	85%					
C[C@@]12Cc3[nH]nc(C(=O)Nc4cnn(CC5CN(C(=O)C6CCN(c7ccc(C8CCC(=O)NC8=O)cn7)CC6)C5)c4)c3C[C@@H]1C2(F)F (stereo partly drawn) [Compound 22, (4aS,5aR)—N-(1-((1-(1-(5-(2,6-dioxopiperidin-3-yl)pyridin-2-yl)piperidine-4-carbonyl)azetidin-3-yl)methyl)-1H-pyrazol-4-yl)-5,5-difluoro-5a-methyl-1,4,4a,5,5a,6-hexahydrocyclopropa[f]indazole-3-carboxamide]	90%					
C[C@@]12Cc3[nH]nc(C(=O)Nc4cnn(CC5CN(C(=O)C6CN(c7ccc(C8CCC(=O)NC8=O)cn7)C6)C5)c4)c3C[C@@H]1C2(F)F (stereo partly drawn) [Compound 23, (4aS,5aR)—N-(1-((1-(1-(5-(2,6-dioxopiperidin-3-yl)pyridin-2-yl)azetidine-3-carbonyl)azetidin-3-yl)methyl)-1H-pyrazol-4-yl)-5,5-difluoro-5a-methyl-1,4,4a,5,5a,6-hexahydrocyclopropa[f]indazole-3-carboxamide]	85%					
CC1(C)CCc2c(-c3cc4ccc(N5CCC6(CCN(CC7CCN(c8ccc(C9CCC(=O)NC9=O)cn8)CC7)CC6)C5=O)cc4[nH]3)n[nH]c2C1 (centres unmarked) [Compound 24, 3-(6-(4-((2-(2-(6,6-dimethyl-4,5,6,7-tetrahydro-1H-indazol-3-yl)-1H-indol-6-yl)-1-oxo-2,8-diazaspiro[4.5]decan-8-yl)methyl)piperidin-1-yl)pyridin-3-yl)piperidine-2,6-dione]	92%	1.43 µM·h	610 nM	6 h	600 pM	
CC1(C)CCc2c(-c3cc4ccc(C(=O)N5CCN(CC6CCN(c7ccc(C8CCC(=O)NC8=O)cn7)CC6)CC5)cc4[nH]3)n[nH]c2C1 (centres unmarked) [Compound 26, 3-(6-(4-((4-(2-(6,6-dimethyl-4,5,6,7-tetrahydro-1H-indazol-3-yl)-1H-indole-6-carbonyl)piperazin-1-yl)methyl)piperidin-1-yl)pyridin-3-yl)piperidine-2,6-dione]	87%	36.5 µM·h	7110 nM	6 h		
C[C@@]12Cc3[nH]nc(-c4cc5ccc(N6CCC7(CCN(CC8CCN(c9ccc(C%10CCC(=O)NC%10=O)cn9)CC8)CC7)C6=O)cc5[nH]4)c3C[C@@H]1C2(F)F (stereo partly drawn) [Compound 28, 3-(6-(4-((2-(2-((4aS,5aR)-5,5-difluoro-5a-methyl-1,4,4a,5,5a,6-hexahydrocyclopropa[f]indazol-3-yl)-1H-indol-6-yl)-1-oxo-2,8-diazaspiro[4.5]decan-8-yl)methyl)piperidin-1-yl)pyridin-3-yl)piperidine-2,6-dione]	91%	1.56 µM·h	379 nM	6 h		
C[C@@H](C(=O)N(C)c1ccc2cc(-c3n[nH]c4c3C[C@@H]3C(F)(F)[C@]3(C)C4)[nH]c2c1)N1CCN(CC2CCN(c3ccc(N4CCC(=O)NC4=O)cn3)CC2)CC1 [Compound 29, (S)—N-(2-((4aS,5aR)-5,5-difluoro-5a-methyl-1,4,4a,5,5a,6-hexahydrocyclopropa[f]indazol-3-yl)-1H-indol-6-yl)-2-(4-((1-(5-(2,4-dioxotetrahydropyrimidin-1(2H)-yl)pyridin-2-yl)piperidin-4-yl)methyl)piperazin-1-yl)-N-methylpropanamide]	76%	1.98 µM·h	694 nM	3.3 h		
C[C@@H](C(=O)N(C)c1ccc2cc(-c3n[nH]c4c3CCC(C)(C)C4)[nH]c2c1)N1CCN(CC2CCN(c3ccc(N4CCC(=O)NC4=O)cn3)CC2)CC1 [Compound 31, (S)—N-(2-(6,6-dimethyl-4,5,6,7-tetrahydro-1H-indazol-3-yl)-1H-indol-6-yl)-2-(4-((1-(5-(2,4-dioxotetrahydropyrimidin-1(2H)-yl)pyridin-2-yl)piperidin-4-yl)methyl)piperazin-1-yl)-N-methylpropanamide]	84%	16.5 µM·h	3080 nM	2 h		
C[C@@H](C(=O)N(C)c1ccc2cc(-c3n[nH]c4c3CCC(C)(C)C4)[nH]c2c1)N1CCN(CC2CCN(c3ccc(C4CCC(=O)NC4=O)cn3)CC2)CC1 (stereo partly drawn) [Compound 32, (2S)—N-(2-(6,6-dimethyl-4,5,6,7-tetrahydro-1H-indazol-3-yl)-1H-indol-6-yl)-2-(4-((1-(5-(2,6-dioxopiperidin-3-yl)pyridin-2-yl)piperidin-4-yl)methyl)piperazin-1-yl)-N-methylpropanamide]	89%	22.7 µM·h	1620 nM	6 h		90 to 100%
CC1(C)CCc2c(-c3cc4ccc(C(=O)N5CCC(CN6CCN(c7ccc(C8CCC(=O)NC8=O)nc7)CC6)CC5)cc4[nH]3)n[nH]c2C1 (centres unmarked) [Compound 35, 3-(5-(4-((1-(2-(6,6-dimethyl-4,5,6,7-tetrahydro-1H-indazol-3-yl)-1H-indole-6-carbonyl)piperidin-4-yl)methyl)piperazin-1-yl)pyridin-2-yl)piperidine-2,6-dione]	86%	12 µM·h	2000 nM	2 h	< 10 pM	

— patent US20230158151A1 (NURIX THERAPEUTICS, INC., priority 2021, published 2023)
